Several values for one entry are separate records, joined by “and”; a condition that tells them apart may be missing. Identical values can stand only once. Counter-ions that a name gives are not always drawn.
Experiments:
[1] = target: Rat Stomach Phospholipase A2 (Rattus norvegicus, UniProt P04055); assay: Phospholipase A2 assay (hydrolysis of 14C-arachidonyl phosphatidyl choline), rat stomach enzyme; assay type: biochemical; conditions: at 10^-4M; read-out: Percent Inhibition of the Hydrolytic Activity of Rat Stomach Phospholipase A2
Experimental: (§1) The following procedure is a modification of the Phospholipase A₂ assay that was first described by Costentino et al., Prostaglandins, 22, 309 (1981) and is the method used herein to determine rat stomach and porcine pancreas phospholipas A₂ activity.
(§2) A suspension of phospholipase A₂ (Sigma Chemical Co., St. Louis, MO) is diluted with 25 millimolar (mM) Tris HCl buffer containing 1 mM calcium chloride to a final concentration of 10 micrograms of protein per milliliter (ml). Aliquots of 0.1 ml (7.1 units) of the enzyme suspension are added to each assay tube. Test compounds are added tin 0.01 ml aliquots in dimethyl sulfoxide or methanol and the volume is brought to 0.15 ml with the buffer. A preincubation is carried out at 37°C for 5 minutes. To start the reaction, 0.01 microcuries (0.179 nanomoles) of 2-arachidonyl (1-¹⁴C) 1-palmitoyl phosphatidyl choline (New England Nuclear, Boston, MA) are added to each tube, including three blank tubes containing no enzyme, and the incubation is carried out for 10 minutes at 37°C. The reaction is stopped with the addition of 0.07 ml of 1N HCl to each tube. Blanks, controls and each concentration of test compound are assayed in triplicate.
(§3) The reaction mixtures are extracted with ethyl acetate, and the organic and aqueous phases are separated by low speed centrifugation. The organic phase is dried under nitrogen and is then resuspended in 0.01 ml ethyl acetate. Arachidonic acid (50 micrograms in 0.01 ml methanol) is added to each tube as a carrier and standard. The entire mixture is spotted on silica gel G thin layer chromatography plates that are developed in a solvent system of ethyl acetate:acetic acid (99:1 by volume). […] Ten ml of Aquasol-2 (American Cyanamid Co., Wayne, NJ) are added to each vial, and the radioactivity is counted by liquid scintillation spectrometry.
(§4) The data are calculated as the ratio in percent of unesterified arachidonic acid to total radioactivity recovered. The potency of a compound is preferably determined by its IC₅₀ value (the concentration required to inhibit the reaction by 50 percent). […]

[2] = target: T1, Porcine Pancreas Phospholipase A2 (Sus scrofa, UniProt P00592); assay: Phospholipase A2 assay (hydrolysis of 14C-arachidonyl phosphatidyl choline), porcine pancreas enzyme; assay type: biochemical
T1 construct: purchased Sigma Chemical Co., St. Louis, MO; host or cells: porcine pancreas
Experimental: as §1, §2, §3, §4

[3] = tested on: experimentally-induced inflammation in the mouse ear; assay: Mouse ear edema assay (topical anti-inflammatory activity); assay type: in vivo
Experimental: Compound 2 was also studied in a mouse ear edema assay to provide a measure of topical anti-inflammatory activity.
The topical antiinflammatory activity of a compound is determined by its ability to inhibit an experimentally-induced inflammation in the mouse ear. Croton oil, or 12-0-tetradecanoylphorbol acetate in acetone is dispensed onto the dorsum of one ear of the mouse. Five to six hours later the mice are sacrificed. A section of each ear is removed with a 7 mm cork borer and weighed on a electronic balance. The difference in weight between treated and untreated ears is determined. Compounds to be evaluated for antiinflammatory activity are incorporated in the croton oil irritant mixture, or applied in an appropriate vehicle.

Sequence of Rat Stomach Phospholipase A2 (P04055 23-146): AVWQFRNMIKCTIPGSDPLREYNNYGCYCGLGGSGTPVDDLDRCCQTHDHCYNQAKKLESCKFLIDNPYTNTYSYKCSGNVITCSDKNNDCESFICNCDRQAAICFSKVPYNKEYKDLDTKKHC
T1 sequence (P00592 23-146): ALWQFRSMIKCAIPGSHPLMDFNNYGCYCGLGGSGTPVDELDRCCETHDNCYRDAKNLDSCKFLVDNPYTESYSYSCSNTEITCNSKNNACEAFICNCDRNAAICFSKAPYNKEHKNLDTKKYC

## CCCCCCCCCCCC/C=C\[C@@H](SC[C@H](N)C(=O)O)[C@@H](O)CCCCO [Compound 4, (5S,6R)-6-[S-(R)-cysteinyl] -7(Z)-eicosen-1,5-diol hemihydrate]
[1]
  inhibition at 100 µM: 40%

## CCCCCCCCCCCC/C=C\[C@@H](SC[C@H](NC(C)=O)C(=O)OC)[C@@H](O)CCCCO [Compound 2, Methyl N-acetyl-S-6[(5S,6R)-1,5-dihydroxy-7(Z)-eicosenyl]-(R)-cysteinate]
[2]; at 10^-5 Molar (M), three independent trials, 10 µM
  Percent Inhibition of the Hydrolytic Activity of Porcine Pancreas Phospholipase A2: 62% and 86% and 68%
[3]; 50 micrograms
  Inhibition (percent) Mouse No. 1: 33%
  Inhibition (percent) Mouse No. 2: 68%
[3]; 100 micrograms
  Inhibition (percent) Mouse No. 1: 53%
  Inhibition (percent) Mouse No. 2: 72%
[3]; 200 micrograms
  Inhibition (percent) Mouse No. 1: 62%
  Inhibition (percent) Mouse No. 2: 82%
[3]; 400 micrograms
  Inhibition (percent) Mouse No. 1: 75%
  Inhibition (percent) Mouse No. 2: 80%

## CCCCCCCCCCCC/C=C\[C@@H](SC[C@H](NC(C)=O)C(=O)OC)C(CCCCO)=NO [Compound 14, Methyl N-acetyl-S-6-[(5S,6R)-1-hydroxy-5-oximino-7(Z)-eicosenyl]-(R)-cysteinate]
[2]; at 10^-4M, 100 µM
  Percent Inhibition of the Hydrolytic Activity of Porcine Pancreas Phospholipase A2: 73%
[2]; at 10^-4M, read-out: Percent Inhibition of the Hydrolytic Activity of Porcine Pancreas Phospholipase A2
  inhibition at 100 µM: 72%
[1]
  inhibition at 100 µM: 58%

## CCCCCCCCCCCC/C=C\[C@@H](SC[C@H](NC(=O)CC[C@H](N)C(=O)O)C(=O)NCC(=O)O)[C@@H](O)CCCCOC1CCCCO1 (stereo partly drawn) [Compound 3, S-6-[(5S,6R)-5-hydroxy-1-(2-tetrahydropyranyloxy)-7(Z)-eicosenyl] glutathione triethylammonium salt dihydrate]
[1]
  inhibition at 100 µM: 55%
